In patent US7323447B2, “Hepatitis C virus inhibitors” (Bristol-Myers Squibb Company, priority 2005, dated 2008):
pIC50: −log10 of the molar value.

Experiments:
[1] = target: T1, HCV NS3/4A protease complex (BMS strain) (UniProt P27958); assay: FRET peptide assay to monitor HCV NS3/4A proteolytic activity, BMS strain; format: biochemical, Hepatitis C virus (genotype 1a); conditions: read-out: IC50 Range; HCV NS3/4A enzyme assay; Table 1
T1 construct: other: HCV NS3/4A enzyme assay; said of H77 and J4L6S; fused on or other part: Three-lysine solubilising tail at the NS4A C-terminus and a His tag from pET21b (Ni-NTA purification), for the H77 and J4L6S constructs
T1 sequence (P27958 1027-1657, one chain of several): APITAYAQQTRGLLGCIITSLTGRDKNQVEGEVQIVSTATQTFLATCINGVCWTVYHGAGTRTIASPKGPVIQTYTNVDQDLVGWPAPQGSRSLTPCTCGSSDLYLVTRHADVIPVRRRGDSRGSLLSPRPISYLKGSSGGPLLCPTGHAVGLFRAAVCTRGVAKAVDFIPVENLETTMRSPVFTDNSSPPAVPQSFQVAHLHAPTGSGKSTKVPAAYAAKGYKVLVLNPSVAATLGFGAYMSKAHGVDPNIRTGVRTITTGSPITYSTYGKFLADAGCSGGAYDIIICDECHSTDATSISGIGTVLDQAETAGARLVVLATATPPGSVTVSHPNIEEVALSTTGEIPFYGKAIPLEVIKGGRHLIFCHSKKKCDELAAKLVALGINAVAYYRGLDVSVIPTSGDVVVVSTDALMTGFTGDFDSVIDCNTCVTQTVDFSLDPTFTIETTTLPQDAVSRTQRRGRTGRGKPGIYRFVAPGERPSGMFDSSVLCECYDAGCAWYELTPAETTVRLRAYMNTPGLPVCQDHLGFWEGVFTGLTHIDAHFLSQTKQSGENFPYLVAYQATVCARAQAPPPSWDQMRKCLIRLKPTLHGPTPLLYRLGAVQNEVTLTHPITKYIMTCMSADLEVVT
Summary of the method: (§1)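 Recombinant NS3/4A (BMS strain, genotype 1a, >90% pure) cleaving FRET depsipeptide RET S1 (EDANS/DABCYL) at 2 μM; enzyme 2-3 nM (300 pM with 50 μg/ml BSA for sensitive runs). Buffer 50 mM HEPES pH 7.5, 0.15 M NaCl, 0.1% Triton, 15% glycerol, 10 mM βME; fluorescence followed in real time.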

[2] = target: T2, HCV NS3/4A protease complex (BMS strain) (UniProt P27958, species not given/STRAIN_BMS); assay: as above; format: biochemical, Hepatitis C virus (genotype 1a); conditions: read-out: IC50 against the NS3/4A BMS strain in the enzyme assay; BMS strain
T2 construct: other: BMS strain; said of H77 and J4L6S; These are given only for the H77 and J4L6S constructs
T2 sequence (P27958 1027-1657, stated change not applied, one chain of several): as the sequence (P27958 1027-1657, one chain of several) above
Summary of the method: as §1

C=C[C@@H]1C[C@]1(NC(=O)[C@@H]1C[C@@H](OC(=O)N2Cc3cccc(F)c3C2)CN1C(=O)[C@@H](OC(=O)NC(C)(C)C)C(C)(C)C)C(=O)NS(=O)(=O)C1CC1 [Example 56Compound 56]
pIC50 [1]: > 7.00 | pIC50 [2]: 7.00
